Assay results published in patent publication US8981106B2, “Pyrimidinecarboxamides as CXCR2 modulators” (Syntrix Biosystems, Inc., priority 2009, dated 2015).

biological target: CXCR2 (Homo sapiens (Human), UniProt P25025); experiment: Inhibition of GROα-mediated intracellular calcium release in human neutrophils (FLIPR-3 Ca2+ mobilization); format: cell-based; conditions: human neutrophils, 25 nM GROα; read-out: IC50
Experimental: In Tables 1-5, the IC50 or EC50 values were determined using the following assay. This assay measures intracellular calcium release via fluorescence as an indication of CXCR2 receptor activation by the physiologic agonist GROα. The assay is a Ca^2+ mobilization assay that measures changes in intracellular Ca^2+ with a FlexStation II scanning fluorometer using a FLIPR-3 Calcium Assay Kit (Molecular Devices, Sunnyvale, Calif.). The procedure is as follows:
1. Human neutrophils were suspended in HBSS^− (without Ca^2+ and Mg^2+) containing 10 mM HEPES and FLIPR Calcium 3 dye (3.1×10^7 cells in total volume 1.7 mL).
2. […] As controls, 2 μL of DMSO (1% final concentration) were added to other 2 tubes.
3. Cells were incubated for 30 min at 37° C.
4. After dye loading, tubes were centrifuged at 6,000 rpm for 1 min, supernatant was removed and cell pellet was re-suspended in 200 μL of HBSS^+ (with Ca^2+ and Mg^2+) containing 10 mM HEPES.
5. The compound or DMSO (control) was added again at the same concentrations that were used during cell loading.
6. The cell suspension was aliquoted into a 96-well Reading Plate (Corning) in a volume of 90 μL (10^5 cells/well). The Compound Plate contained physiologic agonist (GROα in HBSS^−) or HBSS^− (control).
9. The maximum change in fluorescence, expressed in arbitrary units over baseline (Max-Min) was used to determine the GROα response. […] Therapeutic Activity
Briefly, human neutrophils were suspended in HBSS^− (without Ca^2+ and Mg^2+) containing 10 mM HEPES and FLIPR Calcium 3 dye (3.1×10^7 cells in total volume 1.7 mL). […] As controls, 2 μL of DMSO (1% final concentration) were added to 2 other tubes. Cells were incubated for 30 min at 37° C. After dye loading, tubes were centrifuged at 6,000 rpm for 1 min, supernatant was removed and the cell pellet was re-suspended in 200 μL of HBSS^+ (with Ca^2+ and Mg^2+) containing 10 mM HEPES. The test compound or DMSO (control) was added again at the same concentrations that were used during cell loading. The cell suspension was aliquoted into a 96-well Reading Plate (Corning) in a volume of 90 μL (10^5 cells/well). The Compound Plate contained agonist (GROα in HBSS^−) or HBSS^− (control).
The maximum change in fluorescence, expressed in arbitrary units over baseline (Max-Min), was used to determine the GROα response.

CXCR2, sequence (P25025 whole entry): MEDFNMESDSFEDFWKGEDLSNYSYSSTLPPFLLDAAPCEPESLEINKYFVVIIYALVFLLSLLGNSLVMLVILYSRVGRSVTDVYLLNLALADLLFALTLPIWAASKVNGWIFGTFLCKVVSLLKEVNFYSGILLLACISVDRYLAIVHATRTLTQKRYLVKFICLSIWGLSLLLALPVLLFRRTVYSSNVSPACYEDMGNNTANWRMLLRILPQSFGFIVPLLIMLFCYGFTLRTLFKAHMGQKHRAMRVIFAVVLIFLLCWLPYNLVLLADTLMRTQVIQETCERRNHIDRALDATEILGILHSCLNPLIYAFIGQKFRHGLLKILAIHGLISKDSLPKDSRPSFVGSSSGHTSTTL

SMILES | IC50 [nM]
O=C(Nc1ccc(F)cc1)c1ccc(SCc2cccc(B(O)O)c2)nc1 [Compound 7] | 1970 ± 750
O=C(Nc1ccc(F)cc1)c1ccc(SCc2cc3c(cc2B(O)O)OCO3)nc1 [Compound 6] | > 10000
O=C(Nc1ccc(F)cc1)c1ccc(SCc2cccc(OC(F)(F)F)c2)nc1 [Compound 42] | > 10000
CC1(C)OB(c2ccc(OC(F)(F)F)cc2CSc2ccc(C(=O)Nc3ccc(F)cc3)cn2)OC1(C)C [Compound 19, 6-(2-boronic pinacol ester-5-trifluoromethoxy-benzylsulfanyl)-N-(4-fluoro-phenyl)-nicotinamide] | 72 ± 7
Cc1nc(-c2cccc(CSc3ccc(C(=O)Nc4ccc(F)cc4)cn3)c2)no1 [Compound 35] | > 10000
COC(=O)c1ccccc1CSc1ccc(C(=O)Nc2ccc(F)cc2)cn1 [Compound 21] | 759 ± 190
O=C(CSc1ccc(C(=O)Nc2ccc(F)cc2)cn1)c1ccc(OC(F)F)cc1 [Compound 107] | > 10000
Cc1nc(-c2cnccn2)sc1C(=O)CSc1ccc(C(=O)Nc2ccc(F)cc2)cn1 [Compound 149] | > 10000
N#Cc1cccc(C(=O)CSc2ccc(C(=O)Nc3ccc(F)cc3)cn2)c1 [Compound 103] | > 5000
CS(=O)(=O)c1ccc(C(=O)CSc2ccc(C(=O)Nc3ccc(F)cc3)cn2)cc1 [Compound 105] | > 10000
O=C(CSc1ccc(C(=O)Nc2ccc(F)cc2)cn1)c1ccc2c(c1)OCCCO2 [Compound 142] | > 5000
Cc1onc(-c2ccccc2)c1CSc1ccc(C(=O)Nc2ccc(F)cc2)cn1 [Compound 45] | > 5000
Cc1cc(C(=O)CSc2ccc(C(=O)Nc3ccc(F)cc3)cn2)ccc1Cl [Compound 92] | > 5000
O=C(Nc1ccc(F)cc1)c1ccc(SCc2cc(F)ccc2B(O)O)nc1 [Compound 3] | 52 ± 5
O=C(Nc1ccncc1)c1ccc(SCc2ccccc2B(O)O)nc1 [Compound 162] | 520 ± 263
O=C(CSc1ccc(C(=O)Nc2ccc(F)cc2)cn1)c1ccc2c(c1)OCCO2 [Compound 140] | 194 ± 52
Cc1noc(-c2ccccc2)c1CSc1ccc(C(=O)Nc2ccc(F)cc2)cn1 [Compound 46] | > 10000
O=C(Nc1ccc(F)cc1)c1ccc(SCc2ccc3nc(C(F)(F)F)cc(Cl)c3c2)nc1 [Compound 56] | > 5000
CC(=O)Oc1ccccc1CSc1ccc(C(=O)Nc2ccc(F)cc2)cn1 [Compound 13a] | > 5000
O=C(CSc1ccc(C(=O)Nc2ccc(F)cc2)cn1)c1cccc(F)c1 [Compound 91] | > 10000
O=C(Nc1ccc(F)cc1)c1ccc(SCC2COc3ccccc3O2)nc1 (centres unmarked) [Compound 51] | 760
CCc1cc2c(cc1C(=O)CSc1ccc(C(=O)Nc3ccc(F)cc3)cn1)C(C)(C)CCC2(C)C [Compound 112] | 3690 ± 720
O=C(Nc1ccc(F)cc1)c1ccc(SCC(=O)c2ccccc2C(F)(F)F)nc1 [Compound 108] | > 10000
O=C(Nc1ccc(F)cc1)c1ccc(SCCCCB(O)O)nc1 [Compound 10] | 689 ± 230

SMILES | IC50 [nM]
Cc1nc(-c2ccc(Cl)cc2)sc1C(=O)CSc1ccc(C(=O)Nc2ccc(F)cc2)cn1 [Compound 147] | > 5000
O=C(Nc1ccc(F)cc1)c1ccc(SCc2ccccc2C(=O)O)nc1 [Compound 24] | 1480 ± 490
O=C(Nc1ccc(F)cc1)c1ccc(SCC2CCCCO2)nc1 (centres unmarked) [Compound 78] | > 5000
O=C(Nc1ccc(F)cc1)c1ccc(SCC(=O)c2cc(C(=O)O)no2)nc1 [Compound 138] | 81 ± 10
O=C(Nc1ccc(F)cc1)c1ccc(SCCCCCCN2C(=O)c3ccc([N+](=O)[O-])cc3C2=O)nc1 [Compound 60] | > 10000
CC1(C)OB(c2ccccc2CSc2ccc(C(=O)Nc3ccc(F)cc3)cn2)OC1(C)C [Compound 16] | 275 ± 103
Cc1c(C(=O)CSc2ccc(C(=O)Nc3ccc(F)cc3)cn2)sc2ccccc12 [Compound 129] | > 10000
Cc1cccc(CSc2ccc(C(=O)Nc3ccc(F)cc3)cn2)c1F [Compound 28] | > 10000
O=C(Nc1ccc(F)cc1)c1ccc(SCc2cc([N+](=O)[O-])ccc2O)nc1 [Compound 40] | > 5000
O=C(Nc1ccc(F)cc1)c1ccc(SCC(=O)c2cc(Br)cc3c2OCC3)nc1 [Compound 152] | 529 ± 440
O=C(Nc1ccc(F)cc1)c1ccc(SCC(=O)c2cc3ccccc3s2)nc1 [Compound 128] | 1810 ± 520
O=C(Nc1ccc(F)cc1)c1ccc(SCC2CCOCC2)nc1 [Compound 77] | > 10000
O=C(Nc1ccc(F)cc1)c1ccc(SCC(=O)c2csc3ccc(Br)cc23)nc1 [Compound 127] | 1250 ± 320
O=C(Nc1ccc(F)cc1)c1ccc(SCc2cccc3c2OCCCO3)nc1 [Compound 50] | 350
Cc1cc(CSc2ccc(C(=O)Nc3ccc(F)cc3)cn2)no1 [Compound 44] | > 5000
O=C(Nc1ccc(F)cc1)c1ccc(SCC(=O)c2cc(-c3ccccc3)no2)nc1 [Compound 133] | > 5000
O=C(Nc1ccc(F)cc1)c1ccc(SCc2ccccc2)nc1 [Compound 12] | 393 ± 160
O=C(c1ccc(SCc2ccccc2B(O)O)nc1)N(Cc1ccccn1)c1ccc(F)cc1 [Compound 155] | 78 ± 18
O=C(Nc1ccc(F)cc1)c1ccc(SCc2cccc(-n3cccc3)c2)nc1 [Compound 38] | > 10000
O=C(Nc1ccc(F)cc1)c1ccc(SCc2ccccc2-c2cccs2)nc1 [Compound 30] | > 5000
O=C(Nc1ccc(F)cc1)c1ccc(SCC(=O)c2ccccn2)nc1 [Compound 113] | > 10000
Cc1nc(-c2ccccc2)sc1CSc1ccc(C(=O)Nc2ccc(F)cc2)cn1 [Compound 70] | 1210 ± 390
Cc1ccc(C(=O)CSc2ccc(C(=O)Nc3ccc(F)cc3)cn2)c(C)c1 [Compound 87] | > 5000
O=C(Nc1ccc(F)cc1)c1ccc(SCC(=O)c2ccc(-c3ccccc3)s2)nc1 [Compound 123] | > 10000

SMILES | IC50 [nM]
O=C(Nc1ccc(F)cc1)c1ccc(SCCCN2C(=O)c3ccc([N+](=O)[O-])cc3C2=O)nc1 [Compound 58] | > 5000
CCCCCc1ccc(C(=O)CSc2ccc(C(=O)Nc3ccc(F)cc3)cn2)cc1 [Compound 97] | > 10000
O=C(Nc1ccc(F)cc1)c1ccc(SCC(=O)c2coc3ccccc23)nc1 [Compound 118] | > 10000
O=C(Nc1ccc(F)cc1)c1ccc(SCC(=O)c2nc3ccccc3s2)nc1 [Compound 145] | > 5000
O=C(Nc1ccc(-c2nn[nH]n2)cc1)c1ccc(SCc2ccccc2B(O)O)nc1 [Compound 161] | > 10000
O=C(Nc1ccc(F)cc1)c1ccc(SCC(=O)c2ccsn2)nc1 [Compound 144] | 2240 ± 710
O=C(CSc1ccc(C(=O)Nc2ccc(F)cc2)cn1)c1ccc(F)c(F)c1 [Compound 95] | > 5000
O=C(Nc1ccc(F)cc1)c1ccc(SCCOc2ccccc2)nc1 [Compound 72] | > 10000
O=C(Nc1ccc(F)cc1)c1ccc(SCc2ccc(Cl)c(Cl)c2)nc1 [Compound 27] | 1610
CC1(C)CCC(C)(C)c2cc(C(=O)CSc3ccc(C(=O)Nc4ccc(F)cc4)cn3)ccc21 [Compound 111] | > 5000
O=C(Nc1ccc(F)cc1)c1ccc(SCc2ccc3nonc3c2)nc1 [Compound 65] | 216 ± 66
Cc1ccc2cc(CSc3ccc(C(=O)Nc4ccc(F)cc4)cn3)ccc2n1 [Compound 55] | > 10000
O=C(CSc1ccc(C(=O)Nc2ccc(F)cc2)cn1)c1ccc(OC(F)(F)F)cc1 [Compound 106] | > 10000
O=C(Nc1ccc(F)cc1)c1ccc(SCc2cccc3nsnc23)nc1 [Compound 64] | > 5000
Cc1c(C(=O)CSc2ccc(C(=O)Nc3ccc(F)cc3)cn2)sc2ccc(Cl)cc12 [Compound 132] | 780 ± 510
O=C(Nc1ccc(F)cc1)c1ccc(SCc2nc3ccccc3s2)nc1 [Compound 68] | > 10000
CCOP(=O)(CSc1ccc(C(=O)Nc2ccc(F)cc2)cn1)OCC [Compound 82] | > 10000
Cn1c(C(=O)CSc2ccc(C(=O)Nc3ccc(F)cc3)cn2)nc2ccccc21 [Compound 151] | 703 ± 291
O=C(Nc1ccc(F)cc1)c1ccc(SCc2ccccc2-c2nn[nH]n2)nc1 [Compound 26] | 173 ± 46
CC1(C)OB(c2ccccc2CCSc2ccc(C(=O)Nc3ccc(F)cc3)cn2)OC1(C)C [Compound 15] | 611
O=C(Nc1ccc(F)cc1)c1ccc(SCc2cc3nsnc3cc2Cl)nc1 [Compound 63] | > 10000
O=C(Nc1ccc(F)cc1)c1ccc(SC[N+](=O)[O-])nc1 [Compound 84] | > 10000

same assay, conditions: read-out: IC50

SMILES | IC50 [nM]
O=C(Nc1ccc(F)cc1)c1ccc(SCC(=O)c2ccco2)nc1 [Compound 116] | > 10000
